We go through 2 molecules from patent publication US8840924B2, “Compositions and methods of making rapidly dissolving ionically masked formulations” (NEOS Therapeutics, LP, priority 2005, dated 2014).

Molecules are shown by their SMILES.

Series [1] in a line: Dissolution profile of chewable tablet (release of pseudoephedrine and chlorpheniramine). Type of series: physicochemical. From the text:
Below is a list of actual assay results for one example of the present invention with the composition listed as formula II above.
Below is a list of assay results for one example of the present invention with the composition listed as formula II above.

The nature of series [2]: Dissolution profile of capsule (release of pseudoephedrine and chlorpheniramine). Format: physicochemical. Particulars: Table 4, capsules. The source says: In addition the composition may be in the form of a capsule. Below is a list of actual assay results for one example of the present invention when in the form of a capsule.
The mark [3] stands for this setting: Table 1, chewable tablet, composition formula II.
[4] abbreviates: Table 2, after Example III, text says formula II.
The mark [5] stands for this setting: Table 3, composition listed as formula II.

On to `CN(C)CCC(c1ccc(Cl)cc1)c1ccccn1` (stereo not drawn) [Chlorpheniramine], for which, in series [1] (setting [3]), the “release, 30 min (%)” value turned out to be 35.1%; the “release, 1 Hr (%)” value is on record as 42.7%; the “release, 3 Hr (%)” value was 51.6%; the “release, 8 Hr (%)” value was 60.8%. Also, in series [1] (setting [4]), the “release, 30 min (%)” value worked out at 36.4%; the “release, 1 Hr (%)” value is recorded as 42.1%; the “release, 3 Hr (%)” value stood at 51.0%; the “release, 8 Hr (%)” value stood at 60.7%. Besides, in series [1] (setting [5]), the “release, 30 min (%)” value stood at 40.1%; the “release, 1 Hr (%)” value was determined as 45.1%; the “release, 3 Hr (%)” value was 53.3%; the “release, 8 Hr (%)” value amounted to 62.1%. Moreover, in series [2], the “release, 90 min (%)” value is 21.9%; the “release, 3 Hr (%)” value is 35.4%; the “release, 6 Hr (%)” value is reported as 55.2%; the “release, 12 Hr (%)” value is recorded as 78.6%.
On to `CN[C@@H](C)[C@@H](O)c1ccccc1` [Pseudoephedrine], for which, in series [1] (setting [3]), the “release, 30 min (%)” value is recorded as 27.6%; the “release, 1 Hr (%)” value came out at 37.8%; the “release, 3 Hr (%)” value was 59.4%; the “release, 8 Hr (%)” value stood at 82.0%. For the same molecule, in series [1] (Table 1, chewable tablet, composition formula II, listed as pseudoephedrine), the “release, 30 min (%)” value worked out at 26.7%. Further, in series [1] (setting [4]), the “release, 30 min (%)” value was determined as 27.0%; the “release, 1 Hr (%)” value worked out at 36.3%; the “release, 3 Hr (%)” value amounted to 53.0%; the “release, 8 Hr (%)” value is listed as 78.4%. Moreover, in series [1] (setting [5]), the “release, 30 min (%)” value is recorded as 29.2%; the “release, 1 Hr (%)” value stood at 39.7%; the “release, 3 Hr (%)” value turned out to be 61.2%; the “release, 8 Hr (%)” value turned out to be 85.2%. Further, in series [2], the “release, 90 min (%)” value was 34.8%; the “release, 3 Hr (%)” value is given as 54.1%; the “release, 6 Hr (%)” value came to 75.4%; the “release, 12 Hr (%)” value was determined as 91.7%.
